Data on one compound can be found in PMC8929358 (Pharmacology Research & Perspectives, 2021).

Broadly, the Km is the substrate concentration at which the rate is half of its maximum. In general, Cmax refers to the maximum level reached in the sampled fluid or tissue.

The target of one data set is T1, UGT 2B4 (Homo sapiens, UniProt P06133).
T1 sequence (P06133 24-528): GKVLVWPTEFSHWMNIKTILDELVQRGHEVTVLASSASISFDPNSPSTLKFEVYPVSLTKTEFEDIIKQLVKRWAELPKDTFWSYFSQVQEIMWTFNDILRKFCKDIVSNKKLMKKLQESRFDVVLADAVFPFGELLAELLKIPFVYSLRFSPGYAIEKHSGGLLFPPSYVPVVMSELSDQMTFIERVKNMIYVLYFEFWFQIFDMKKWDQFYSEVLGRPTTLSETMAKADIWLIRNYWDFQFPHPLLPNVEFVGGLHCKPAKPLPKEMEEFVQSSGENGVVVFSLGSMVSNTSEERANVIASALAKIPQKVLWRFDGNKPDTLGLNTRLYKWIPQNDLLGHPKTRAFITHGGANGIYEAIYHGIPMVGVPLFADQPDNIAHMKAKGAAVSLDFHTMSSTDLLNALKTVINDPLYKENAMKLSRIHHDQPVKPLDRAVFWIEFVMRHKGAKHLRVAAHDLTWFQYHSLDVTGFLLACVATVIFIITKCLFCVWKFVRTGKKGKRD
As to the kind of experiment: Glucuronidation of opicapone by recombinant UGT2B4. The conditions noted are these: 20 μM opicapone; incubation period of 60 min. The data set is classed as in vitro ADME.

Another data set has as its target T2, UGT 2B7 (Homo sapiens, UniProt P16662).
T2 sequence (P16662 24-529): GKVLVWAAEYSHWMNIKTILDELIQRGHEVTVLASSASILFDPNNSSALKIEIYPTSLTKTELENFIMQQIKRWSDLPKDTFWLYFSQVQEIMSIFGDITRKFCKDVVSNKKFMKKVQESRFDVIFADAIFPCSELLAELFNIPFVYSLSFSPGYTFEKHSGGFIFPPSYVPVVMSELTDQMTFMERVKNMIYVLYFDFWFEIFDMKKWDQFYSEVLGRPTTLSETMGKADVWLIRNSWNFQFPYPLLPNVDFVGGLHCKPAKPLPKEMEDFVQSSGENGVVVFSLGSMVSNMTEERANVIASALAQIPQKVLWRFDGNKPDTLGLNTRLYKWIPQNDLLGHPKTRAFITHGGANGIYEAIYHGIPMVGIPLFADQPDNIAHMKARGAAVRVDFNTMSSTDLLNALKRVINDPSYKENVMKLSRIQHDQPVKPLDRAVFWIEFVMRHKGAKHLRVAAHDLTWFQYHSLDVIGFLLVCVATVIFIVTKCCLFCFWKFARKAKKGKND
Description: Glucuronidation of opicapone by recombinant UGT2B7. The data set is classed as in vitro ADME. The conditions noted are these: 20 μM opicapone.

Data set [1] can be described thus: Sulfate conjugation of opicapone in human intestinal S9. The data set is classed as in vitro ADME. The settings on record: human intestinal S9 fraction (HIS9), pH 7.4.
The target of the next data set is T3, UGT 1A1 (Homo sapiens, UniProt P22309).
T3 sequence (P22309 26-533): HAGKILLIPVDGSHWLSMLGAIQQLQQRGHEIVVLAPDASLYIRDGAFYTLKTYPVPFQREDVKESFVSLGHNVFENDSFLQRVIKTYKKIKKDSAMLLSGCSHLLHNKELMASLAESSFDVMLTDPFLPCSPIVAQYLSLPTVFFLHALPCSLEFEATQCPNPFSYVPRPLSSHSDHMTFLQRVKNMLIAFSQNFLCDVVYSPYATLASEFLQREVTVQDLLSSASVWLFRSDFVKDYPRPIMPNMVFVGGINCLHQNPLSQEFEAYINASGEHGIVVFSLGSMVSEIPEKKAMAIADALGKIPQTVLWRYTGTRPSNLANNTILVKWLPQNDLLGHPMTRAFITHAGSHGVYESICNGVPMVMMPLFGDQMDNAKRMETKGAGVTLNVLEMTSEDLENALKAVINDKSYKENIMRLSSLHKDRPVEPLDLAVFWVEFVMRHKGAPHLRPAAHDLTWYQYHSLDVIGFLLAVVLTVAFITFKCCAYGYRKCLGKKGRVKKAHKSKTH
As to the kind of experiment: Glucuronidation of opicapone by recombinant UGT1A1. The data set is classed as in vitro ADME. The conditions noted are these: 20 μM opicapone.

A further data set has as its target T4, UGT 2B17 (Homo sapiens, UniProt O75795).
T4 sequence (O75795 24-530): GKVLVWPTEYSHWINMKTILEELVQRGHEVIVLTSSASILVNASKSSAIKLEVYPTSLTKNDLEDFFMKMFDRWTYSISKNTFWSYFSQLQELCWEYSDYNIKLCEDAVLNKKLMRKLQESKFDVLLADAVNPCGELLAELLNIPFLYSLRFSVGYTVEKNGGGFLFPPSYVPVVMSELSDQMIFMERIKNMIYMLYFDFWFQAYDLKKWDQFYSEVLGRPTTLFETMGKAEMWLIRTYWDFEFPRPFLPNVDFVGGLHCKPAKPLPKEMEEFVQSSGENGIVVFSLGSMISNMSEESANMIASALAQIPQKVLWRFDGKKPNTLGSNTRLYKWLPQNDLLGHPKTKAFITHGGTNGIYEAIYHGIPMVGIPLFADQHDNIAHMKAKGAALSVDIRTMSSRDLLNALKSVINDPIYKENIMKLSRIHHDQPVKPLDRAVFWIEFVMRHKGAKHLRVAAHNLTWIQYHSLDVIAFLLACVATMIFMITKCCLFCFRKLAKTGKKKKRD
Description: Glucuronidation of opicapone by recombinant UGT2B17. The data set is classed as in vitro ADME. The settings on record: 20 μM opicapone; incubation period of 60 min.

Data set [2] is classed as in vivo, rat. The settings on record: rat, plasma, po, 1 g/kg.

In the case of `Cc1c(Cl)c(C)[n+]([O-])c(Cl)c1-c1noc(-c2cc(O)c(O)c([N+](=O)[O-])c2)n1` [opicapone, 2,5‐dichloro‐3‐(5‐(3,4‐dihydroxy‐5‐nitrophenyl)‐1,2,4‐oxadiazol‐3‐yl)‐4,6‐dimethylpyridine 1‐oxide], the “Metabolite formation (screening)” value at UGT 2B4 and at UGT 2B17 was “No metabolite formation was detected” each time. Also, the “Formation of BIA 9-1106 (screening)” value at UGT 2B7 and on UGT 1A1 was “little amounts” in each case. In data set [1], the Michaelis-Menten constant (Km) stood at 8.2 ± 1.1 µM. Further, the Cmax in data set [2] was 7090 ng/mL.
